Patent US9895344B2, “Treating various disorders with 7,8-dihydroxyflavone and derivatives thereof” (EMORY UNIVERSITY, priority 2008, dated 2018)

Experiments:
TrkB ECD truncates [1] = molecular target: T1, TrkB ECD truncates (Rattus norvegicus, UniProt Q63604); experiment: Mapping assay with TrkB ECD truncation mutants; format: binding; conditions: FIG. 18
T1 construct: made in house
Experimental: (§1) BDNF is known to bind to the region of the TrkB ECD that contains the third leucine-rich motif (LRM), the second cysteine cluster (CC) domain, and the Immunoglobulin 2 (Ig2) domain (Haniu et al., J. Biol. Chem., 272:25296-303, 1997). To map where 7,8-dihydroxyflavone binds on the TrkB ECD, truncation mutants of the ECD were made and in vitro binding assays were conducted.

TrkB ECD truncates [2] = experiment: Mapping assay with TrkB ECD truncation mutants; format: binding; conditions: FIG. 18
Experimental: as §1

TrkB [3] = molecular target: T2, TrkB (Rattus norvegicus, UniProt Q63604); experiment: Western analysis of TrkB activation in hippocampal neurons; format: cell-based; set-up: endogenous in cells; host or cells: primary hippocampal neurons; conditions: FIG. 9
Experimental: To further examine whether 7,8-dihydroxyflavone can stimulate TrkB-mediated downstream signaling cascades, Western analysis was performed.
To further test that the stimulatory effect of 7,8-dihydroxyflavone is mediated through TrkB, cells were either untreated or treated with K252a, a selective inhibitor of the tyrosine kinase activity of the Trk family of neutrophin receptors.

TrkB [4] = molecular target: T2, TrkB; experiment: TrkB activation in primary cortical neurons (p-TrkB Y817 immunoblotting); format: cell-based; set-up: endogenous in cells; host or cells: primary cortical neurons; conditions: FIG. 27 right
Experimental: Primary cultured rat cortical neurons were prepared as follows. E17 rat pups were decapitated and cortex was extirpated, cross chopped, and suspended by pipetting for separation in 5% fetal calf serum (FCS), 5% horse serum (HS) DMEM. The cell suspension was then centrifuged at 250×g for 5 minutes. This operation was repeated again. Cells were seeded into polyethyleneimine-coated 10 cm^2 dishes and 12-well plates including coated-coverslips and incubated at 37° C. in 5% CO2/95% air. After 3 hours, the culture medium was changed to Neurobasal containing B-27 supplement (Invitrogen; Carlsbad, Calif.) and incubated for 4 days. For maintenance, half of the culture medium was changed to fresh Neurobasal/B27 every 4 days. After 1 week, the dished cultured neurons were ready for use.
To compare the TrkB activation by the synthetic compounds of Examples 9 and 10 (see FIG. 26), primary cortical cultures were prepared. The cortical neurons were treated with 500 nM of various compounds for 30 min and collected the cell lysates. […] Replacing the H-bond acceptor O atom with hydrogen bond donor NH reduced its stimulatory effect. […] In comparison, 7,8-DHF provoked TrkB activation with the minimal concentration of 100 nM (FIG. 27, right panels).

TrkB F616A = molecular target: T3, TrkB F616A (Mus musculus, UniProt P15209, F616A); experiment: TrkB phosphorylation in cortical neurons from TrkB F616A knockin mice; format: cell-based; conditions: 0.5 μM, 30 minutes, FIG. 23
T3 construct: endogenous in cells; host or cells: cortical neurons of TrkB F616A knock-in mice
Experimental: To explore whether the neuroprotective action of 7,8-dihydroxyflavone is dependent on TrkB activation in vivo, TrkB F616A knockin mice were used. […] To further assess whether 7,8-dihydroxyflavone can mimic BDNF, cortical neurons were prepared from TrkB F616A knockin mice. The cortical neurons were pretreated for 30 minutes with either K252a Trk tyrosine kinase inhibitor (100 nM) or 1NMPP1 inhibitor (100 nM) followed by 0.5 μM 7,8-dihydroxyflavone for 30 minutes.

TrkB [5] = molecular target: T4, TrkB (Mus musculus, UniProt P15209); experiment: Time course of TrkB activation in mouse brain; format: in vivo, C57BL/6J mice; conditions: 1 mg/kg, oral injection, FIG. 28
T4 construct: from tissue; host or cells: mouse brain
Experimental: To compare the stimulatory effect on TrkB receptor in mouse brain, 1 mg/kg of these compounds was injected into C57BL/6J mice and monitored TrkB activation at different time points (see FIG. 28). […] In contrast, 7,8-DHF triggered TrkB activation 2 h after oral injection and peaked at 4 h and TrkB activity progressively faded away. The TrkB activity was demonstrable even at 16 h (FIG. 28).

GST-TrkB ICD = GST-TrkB ICD (Rattus norvegicus, UniProt Q63604); experiment: In vitro binding assay with immobilized GST-TrkB ICD on glutathione beads, UV-spectrometry of eluate; conditions: 500 nM, 4° C., 30 minutes, FIG. 17
Experimental: To further explore the association of 7,8-dihydroxyflavone and the TrkB receptor, an in vitro binding assay was performed. Increasing volumes of GST-TrkB ECD and GST-TrkB ICD were bound to glutathione beads to a total of 250 uL, and 500 nM 7,8-dihydroxyflavone in 250 μl (20% DMSO/80% PBS) was incubated with the beads in the column at 4° C. for 30 minutes. After the incubation, the elute fractions were collected and the concentration of eluted 7,8-dihydroxyflavone was analyzed by UV-spectrometry at a wavelength of 410 nm.

TrkB [6] = molecular target: T2, TrkB; experiment: Tyrosine phosphorylation of Trk receptors in transfected HEK293 cells: TrkB; format: cell-based; set-up: expressed in transfected cells; host or cells: HEK293; conditions: FIG. 15
From the text: To determine if 7,8-dihydroxyflavone promoted tyrosine phosphorylation of the other Trk receptors, HEK293 cells were transfected with various Trk receptors, followed by treatment with 7,8-dihydroxyflavone.

[7] = tested on: progenitor proliferation in hippocampus; experiment: Neurogenesis analysis in hippocampus (BrdU); format: in vivo, C57BL/6J mice; conditions: 5 mg/kg daily for 21 days, compared to vehicle control, FIGS. 32 and 33
Experimental: Adult male mice (2-3 months old) were orally injected with saline, 4′-DMA-7,8-DHF and 7,8-DHF (5 mg/kg) for 21 days. Then BrdU (50 mg/kg) was i.p. injected. In 2 hours, the mice were perfused with 4% paraformaldehyde. Immunohistochemical staining was performed on formalin-fixed paraffin-embedded sections. Sections from brain were cut, deparaffinized in xylene and rehydrated in graded alcohols. The slides were boiled in 10 mM citric acid (pH 6.0) for 10 minutes followed by an incubation in 2 N HCl for 10 minutes in room temperature. The slides were then permeabilized and blocked with 1% BSA in 0.2% PBST. The incorporated BrdU were stained using anti-BrdU-FITC (Abcam, Inc; Cambridge, Mass.) at 4° C. for 16 hours. After three washes in PBS, the cells were stained with DAPI for another 10 minutes at room temperature. The slides were mounted with AquaMount (Lerner Laboratories; Pittsburgh, Pa.) containing 0.01% 1,4-diazobicyclo(2,2,2)octane and examined under a fluorescence microscope.
To test whether increasing TrkB activation by 4′-dimethylamino-7,8-dihydroxyflavone would elevate neurogenesis, adult male C57BL/6J mice were injected daily for 21 days with either vehicle, 7,8-DHF, or 4′-DMA-7,8-DHF (5 mg/kg). At the end of treatment (day 21), the animals were injected with BrdU (50 mg/kg, i.p.) to label the dividing cells and were sacrificed 2 hours later. […]

T4 sequence (P15209 32-821): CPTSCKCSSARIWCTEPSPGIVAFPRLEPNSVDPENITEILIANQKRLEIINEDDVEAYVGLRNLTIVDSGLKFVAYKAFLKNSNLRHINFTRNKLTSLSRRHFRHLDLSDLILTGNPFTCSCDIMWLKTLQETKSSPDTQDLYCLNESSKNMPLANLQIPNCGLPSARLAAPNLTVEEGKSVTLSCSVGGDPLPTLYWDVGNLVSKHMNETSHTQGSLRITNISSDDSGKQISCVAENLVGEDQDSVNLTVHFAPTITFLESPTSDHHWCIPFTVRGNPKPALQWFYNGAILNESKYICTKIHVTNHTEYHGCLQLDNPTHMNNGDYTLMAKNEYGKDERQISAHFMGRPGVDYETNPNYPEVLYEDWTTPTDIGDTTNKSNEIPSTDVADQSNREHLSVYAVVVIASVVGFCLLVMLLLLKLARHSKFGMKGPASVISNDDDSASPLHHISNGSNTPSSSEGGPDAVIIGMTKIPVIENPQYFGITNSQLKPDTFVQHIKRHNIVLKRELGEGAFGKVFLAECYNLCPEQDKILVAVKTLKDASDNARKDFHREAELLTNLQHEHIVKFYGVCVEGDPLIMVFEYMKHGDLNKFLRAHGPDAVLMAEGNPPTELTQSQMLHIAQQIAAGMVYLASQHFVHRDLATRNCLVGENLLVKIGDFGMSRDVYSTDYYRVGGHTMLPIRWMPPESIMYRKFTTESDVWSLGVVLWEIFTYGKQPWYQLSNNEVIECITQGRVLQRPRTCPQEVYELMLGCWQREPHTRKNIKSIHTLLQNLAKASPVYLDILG
T2 sequence (Q63604 32-821): as the sequence (P15209 32-821) above, with T3M, S9T, A10T, V32I, R63K, S84G, M153T, L185I, S394T, S770N counted along it
Chain of GST-TrkB ICD (Q63604 454-821): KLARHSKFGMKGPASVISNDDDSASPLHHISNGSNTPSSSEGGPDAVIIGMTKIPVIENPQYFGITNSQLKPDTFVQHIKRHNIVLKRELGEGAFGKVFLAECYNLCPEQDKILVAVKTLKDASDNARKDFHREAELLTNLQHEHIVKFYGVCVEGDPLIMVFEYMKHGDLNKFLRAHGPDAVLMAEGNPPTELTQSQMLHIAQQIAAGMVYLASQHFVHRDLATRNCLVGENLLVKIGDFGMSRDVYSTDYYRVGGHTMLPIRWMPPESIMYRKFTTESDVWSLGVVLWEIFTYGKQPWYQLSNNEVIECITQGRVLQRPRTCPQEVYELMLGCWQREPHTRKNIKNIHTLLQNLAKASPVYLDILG
T3 sequence (P15209 32-821 F616A): as the sequence (P15209 32-821) above, with F585A counted along it

For `O=c1cc(-c2ccccc2)oc2c(O)c(O)ccc12` [7,8-dihydroxyflavone], the “association with the ECD” value (TrkB ECD truncates [1]) was “strongly associated”, the “binding to the ICD” value (TrkB ECD truncates [1]) was “did not bind” and the “association with the CC-2 domain” value (TrkB ECD truncates [2]) was “strongly associated”. The “association with the LRM-domain” value (TrkB ECD truncates [2]) was “associated less strongly”, the “binding to the CC-1 domain” value (TrkB ECD truncates [2]) was “did not bind” and the “activation of TrkB (Western)” value (TrkB [3]) was “demonstrated activation of TrkB”. For the same compound, the “minimal concentration triggering TrkB activation (titration assay)” value (TrkB [4]) was 100 nM, the “activation of TrkB F616A” value (TrkB F616A) was “selectively activates TrkB F616A” and the “TrkB activity at 16 h” value (TrkB [5]) was “demonstrable”. For the same compound, the “time at which TrkB activation was elicited” value (TrkB [5]) was 2 h, the “time at which TrkB activity peaked” value (TrkB [5]) was 4 h and the “concentration of eluted compound as GST-TrkB ICD volumes increased” value (GST-TrkB ICD) was “remained constant”. For the same compound, the “tyrosine phosphorylation of TrkB receptor” value (TrkB [6]) was “elicited tyrosine phosphorylation” and the “neurogenesis (BrdU)” value [7] was “increased neurogenesis”.
